From patent US20020026053A1, “Novel 3-(substituted) -2- indolinones compounds and use thereof as inhibitors of protein kinase activity” (priority 1997, published 2002)

target: T1, EGFR (Homo sapiens, UniProt P00533); assay: Biochemical EGFR Assay; parameters: concentration or dose not given beside the values; conditions: protocol P.167
T1 construct: endogenous in cells; host or cells: A431 cells (lysate, captured with SUMO1 anti-EGFR antibody)
Outline: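 EGFR from A431 lysate was captured on anti-EGFR-coated wells and preincubated 30 min with compound (diluted 1:10 in TBS) at room temperature. After ATP/MnCl2 phosphorylation for 5 min, the reaction was stopped with EDTA. Phosphotyrosine was detected by ELISA (anti-phosphotyrosine, peroxidase conjugate, ABTS) at 410 nm.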

T1 sequence (P00533 25-1210): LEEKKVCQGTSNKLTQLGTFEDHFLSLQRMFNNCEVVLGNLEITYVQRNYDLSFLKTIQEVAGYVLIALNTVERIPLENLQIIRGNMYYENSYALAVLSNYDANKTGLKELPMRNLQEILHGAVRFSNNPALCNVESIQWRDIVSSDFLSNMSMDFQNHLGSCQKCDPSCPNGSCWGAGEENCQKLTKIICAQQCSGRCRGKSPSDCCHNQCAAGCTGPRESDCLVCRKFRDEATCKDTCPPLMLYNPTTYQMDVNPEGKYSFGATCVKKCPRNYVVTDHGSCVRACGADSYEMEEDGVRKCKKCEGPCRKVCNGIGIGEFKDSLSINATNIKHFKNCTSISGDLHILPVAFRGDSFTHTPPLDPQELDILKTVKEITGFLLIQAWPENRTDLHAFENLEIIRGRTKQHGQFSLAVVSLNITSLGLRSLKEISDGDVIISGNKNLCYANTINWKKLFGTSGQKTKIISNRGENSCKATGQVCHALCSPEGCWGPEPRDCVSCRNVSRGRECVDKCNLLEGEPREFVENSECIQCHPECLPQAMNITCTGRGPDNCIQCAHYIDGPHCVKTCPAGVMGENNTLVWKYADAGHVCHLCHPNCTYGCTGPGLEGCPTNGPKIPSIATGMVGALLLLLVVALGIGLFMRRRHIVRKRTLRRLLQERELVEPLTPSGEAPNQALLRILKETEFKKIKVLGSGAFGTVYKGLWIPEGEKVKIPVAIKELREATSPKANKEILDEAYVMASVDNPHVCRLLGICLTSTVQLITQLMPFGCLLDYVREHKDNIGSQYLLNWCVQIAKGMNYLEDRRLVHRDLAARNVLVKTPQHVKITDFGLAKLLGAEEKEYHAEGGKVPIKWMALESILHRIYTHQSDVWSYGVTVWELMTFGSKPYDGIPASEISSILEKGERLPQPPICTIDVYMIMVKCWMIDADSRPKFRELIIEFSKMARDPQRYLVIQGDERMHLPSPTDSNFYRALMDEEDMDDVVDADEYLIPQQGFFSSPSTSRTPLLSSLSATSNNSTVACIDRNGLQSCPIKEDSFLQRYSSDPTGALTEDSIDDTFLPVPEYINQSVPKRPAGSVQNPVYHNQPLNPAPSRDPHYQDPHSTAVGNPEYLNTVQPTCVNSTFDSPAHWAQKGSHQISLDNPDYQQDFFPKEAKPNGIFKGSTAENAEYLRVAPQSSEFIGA

Structure (SMILES) | Biochem EGFR % Inhibition (P.167) [%]
Cc1c(Br)cc(Br)c2c1C(=Cc1cccc(F)c1)C(=O)N2 [10736/H07] | 52.2
Cc1c(Br)cc(Br)c2c1C(=Cc1ccccc1F)C(=O)N2 [10736/H08] | −20.2
CCc1ccc(C=C2C(=O)Nc3c(Br)cc(Br)c(C)c32)cc1 [10736/H09] | 35.7
COc1cccc(C=C2C(=O)Nc3c(Br)cc(Br)c(C)c32)c1 [10736/H10] | 45.6
Cc1c(Br)cc(Br)c2c1C(=Cc1ccccc1Cl)C(=O)N2 [10736/H11] | 11.1
CCOc1ccc(C=C2C(=O)Nc3c(Br)cc(Br)cc32)cc1 [10737/A02] | 37.3
Cc1ccc(C=C2C(=O)Nc3c(Br)cc(Br)cc32)c(C)c1 [10737/A03] | 12.8
O=C1Nc2c(Br)cc(Br)cc2C1=Cc1cc(F)ccc1F [10737/A04] | 29.4
O=C1Nc2c(Br)cc(Br)cc2C1=Cc1cccc(F)c1F [10737/A05] | 26.4
COc1ccc(C=C2C(=O)Nc3c(Br)cc(Br)cc32)cc1F [10737/A06] | 37.3
Cc1ccc(C)c(C=C2C(=O)Nc3c(Br)cc(Br)cc32)c1 [10737/A07] | 25.3
O=C1Nc2c(Br)cc(Br)cc2C1=Cc1ccc2ccccc2c1 [10737/A08] | 35.8
O=C1Nc2c(Br)cc(Br)cc2C1=Cc1ccc(Oc2ccccc2)cc1 [10737/A09] | 36.0
CC(C)(C)c1ccc(Oc2cccc(C=C3C(=O)Nc4c(Br)cc(Br)cc43)c2)cc1 [10737/A10] | 10.9
O=C1Nc2c(Br)cc(Br)cc2C1=Cc1cccc(Oc2cccc(C(F)(F)F)c2)c1 [10737/A11] | 10.8
CCOc1ccc(C=C2C(=O)Nc3ccc(I)cc32)cc1 [10737/B02] | −34.0
Cc1ccc(C=C2C(=O)Nc3ccc(I)cc32)c(C)c1 [10737/B03] | −34.9
O=C1Nc2ccc(I)cc2C1=Cc1cc(F)ccc1F [10737/B04] | 7.1
O=C1Nc2ccc(I)cc2C1=Cc1cccc(F)c1F [10737/B05] | 17.4

Structure (SMILES) | Biochem EGFR % Inhibition (P.167) [%]
COc1ccc(C=C2C(=O)Nc3ccc(I)cc32)cc1F [10737/B06] | 22.5
Cc1ccc(C)c(C=C2C(=O)Nc3ccc(I)cc32)c1 [10737/B07] | 18.1
O=C1Nc2ccc(I)cc2C1=Cc1ccc2ccccc2c1 [10737/B08] | 15.4
O=C1Nc2ccc(I)cc2C1=Cc1ccc(Oc2ccccc2)cc1 [10737/B09] | 26.4
CC(C)(C)c1ccc(Oc2cccc(C=C3C(=O)Nc4ccc(I)cc43)c2)cc1 [10737/B10] | −7.3
O=C1Nc2ccc(I)cc2C1=Cc1cccc(Oc2cccc(C(F)(F)F)c2)c1 [10737/B11] | −9.9
CCOc1ccc(C=C2C(=O)Nc3ccc(Br)c(C)c32)cc1 [10737/C02] | −22.0
Cc1ccc(C=C2C(=O)Nc3ccc(Br)c(C)c32)c(C)c1 [10737/C03] | −0.7
Cc1c(Br)ccc2c1C(=Cc1cc(F)ccc1F)C(=O)N2 [10737/C04] | 14.4
Cc1c(Br)ccc2c1C(=Cc1cccc(F)c1F)C(=O)N2 [10737/C05] | 13.3
COc1ccc(C=C2C(=O)Nc3ccc(Br)c(C)c32)cc1F [10737/C06] | 29.0
Cc1ccc(C)c(C=C2C(=O)Nc3ccc(Br)c(C)c32)c1 [10737/C07] | 27.9
Cc1c(Br)ccc2c1C(=Cc1ccc3ccccc3c1)C(=O)N2 [10737/C08] | 16.3
Cc1c(Br)ccc2c1C(=Cc1ccc(Oc3ccccc3)cc1)C(=O)N2 [10737/C09] | 13.0
Cc1c(Br)ccc2c1C(=Cc1cccc(Oc3ccc(C(C)(C)C)cc3)c1)C(=O)N2 [10737/C10] | −15.6
Cc1c(Br)ccc2c1C(=Cc1cccc(Oc3cccc(C(F)(F)F)c3)c1)C(=O)N2 [10737/C11] | −5.6
CCOc1ccc(C=C2C(=O)Nc3ccc(S(=O)(=O)NC)cc32)cc1 [10737/D02] | −14.7
CNS(=O)(=O)c1ccc2c(c1)C(=Cc1ccc(C)cc1C)C(=O)N2 [10737/D03] | −21.5
CNS(=O)(=O)c1ccc2c(c1)C(=Cc1cc(F)ccc1F)C(=O)N2 [10737/D04] | −27.7

Structure (SMILES) | Biochem EGFR % Inhibition (P.167) [%]
CNS(=O)(=O)c1ccc2c(c1)C(=Cc1cccc(F)c1F)C(=O)N2 [10737/D05] | 17.9
CNS(=O)(=O)c1ccc2c(c1)C(=Cc1ccc(OC)c(F)c1)C(=O)N2 [10737/D06] | 33.8
CNS(=O)(=O)c1ccc2c(c1)C(=Cc1cc(C)ccc1C)C(=O)N2 [10737/D07] | 16.1
CNS(=O)(=O)c1ccc2c(c1)C(=Cc1ccc3ccccc3c1)C(=O)N2 [10737/D08] | 5.6
CNS(=O)(=O)c1ccc2c(c1)C(=Cc1ccc(Oc3ccccc3)cc1)C(=O)N2 [10737/D09] | 13.7
CNS(=O)(=O)c1ccc2c(c1)C(=Cc1cccc(Oc3ccc(C(C)(C)C)cc3)c1)C(=O)N2 [10737/D10] | −15.0
CNS(=O)(=O)c1ccc2c(c1)C(=Cc1cccc(Oc3cccc(C(F)(F)F)c3)c1)C(=O)N2 [10737/D11] | −2.3
CCOc1ccc(C=C2C(=O)Nc3ccc(S(=O)(=O)Nc4ccc(C(F)(F)F)cc4)cc32)cc1 [10737/E02] | 6.7
Cc1ccc(C=C2C(=O)Nc3ccc(S(=O)(=O)Nc4ccc(C(F)(F)F)cc4)cc32)c(C)c1 [10737/E03] | −4.5
O=C1Nc2ccc(S(=O)(=O)Nc3ccc(C(F)(F)F)cc3)cc2C1=Cc1cc(F)ccc1F [10737/E04] | 15.4
O=C1Nc2ccc(S(=O)(=O)Nc3ccc(C(F)(F)F)cc3)cc2C1=Cc1cccc(F)c1F [10737/E05] | −8.6
COc1ccc(C=C2C(=O)Nc3ccc(S(=O)(=O)Nc4ccc(C(F)(F)F)cc4)cc32)cc1F [10737/E06] | −14.1
Cc1ccc(C)c(C=C2C(=O)Nc3ccc(S(=O)(=O)Nc4ccc(C(F)(F)F)cc4)cc32)c1 [10737/E07] | −12.3
O=C1Nc2ccc(S(=O)(=O)Nc3ccc(C(F)(F)F)cc3)cc2C1=Cc1ccc2ccccc2c1 [10737/E08] | −7.8
O=C1Nc2ccc(S(=O)(=O)Nc3ccc(C(F)(F)F)cc3)cc2C1=Cc1ccc(Oc2ccccc2)cc1 [10737/E09] | −0.7
CC(C)(C)c1ccc(Oc2cccc(C=C3C(=O)Nc4ccc(S(=O)(=O)Nc5ccc(C(F)(F)F)cc5)cc43)c2)cc1 [10737/E10] | −4.2
O=C1Nc2ccc(S(=O)(=O)Nc3ccc(C(F)(F)F)cc3)cc2C1=Cc1cccc(Oc2cccc(C(F)(F)F)c2)c1 [10737/E11] | −33.4
CCOc1ccc(C=C2C(=O)Nc3ccc(S(=O)(=O)N4CCOCC4)cc32)cc1 [10737/F02] | 21.4
Cc1ccc(C=C2C(=O)Nc3ccc(S(=O)(=O)N4CCOCC4)cc32)c(C)c1 [10737/F03] | −3.1
